According to PubChem BioAssay AID180 (DTP/NCI, 2004):
Where “and” joins values, the source holds several entries; their conditions need not be identical. Equal values may be shown once.

Tested on: BDF1 mice, Adenocarcinoma 755 s.c., tumor weight T/C
Assay: NCI In Vivo Anticancer Drug Screen. Data for tumor model Adenocarcinoma 755 (subcutaneous) in B6D2F1 (BDF1) mice
Conditions: endpoint: mean tumor weight, higher = larger tumour
In short: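 Compound activity was tested in mice carrying transplanted tumors. Survival or tumor size was measured, and each value is the treated-group measurement divided by that of the vehicle-treated control group (T/C).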

[1] = dose: 12.5 mg/kg/injection, schedule: Q01DX011 (ip), vehicle: methylcellulose (MC)
[2] = dose: 15.0 mg/kg/injection, schedule: Q01DX011 (ip), vehicle: methylcellulose (MC)
[3] = dose: 25.0 mg/kg/injection, schedule: Q01DX011 (ip), vehicle: methylcellulose (MC)
[4] = dose: 30.0 mg/kg/injection, schedule: Q01DX011 (ip), vehicle: carboxymethylcellulose (CMC)
[5] = dose: 60.0 mg/kg/injection, schedule: Q01DX011 (ip), vehicle: carboxymethylcellulose (CMC)
[6] = dose: 120.0 mg/kg/injection, schedule: Q01DX011 (ip), vehicle: carboxymethylcellulose (CMC)
[7] = dose: 240.0 mg/kg/injection, schedule: Q01DX011 (ip), vehicle: carboxymethylcellulose (CMC)

`C[C@@H]1C[C@@H]([C@H](O)CC2CC(=O)NC(=O)C2)C(=O)[C@@H](C)C1` was tested, and the T/C (dose: 5.0 mg/kg/injection, schedule: Q#A X022 (ip), vehicle: alkali diluted with saline) was 103 % of control, the T/C (dose: 6.63 mg/kg/injection, schedule: Q01DX011 (ip), vehicle: carboxymethylcellulose (CMC)) was 51 % of control and the T/C (dose: 7.5 mg/kg/injection, schedule: Q01DX011 (ip), vehicle: methylcellulose (MC)) was 89 % of control. For the same molecule, the T/C (dose: 8.63 mg/kg/injection, schedule: Q01DX011 (ip), vehicle: carboxymethylcellulose (CMC)) was 87 % of control, the T/C (dose: 9.5 mg/kg/injection, schedule: Q01DX011 (ip), vehicle: carboxymethylcellulose (CMC)) was 103 % of control and 117 % of control and the T/C (dose: 10.0 mg/kg/injection, schedule: Q01DX011 (im), vehicle: alkali diluted with saline) was 79 % of control. For the same molecule, the T/C (dose: 10.0 mg/kg/injection, schedule: Q01DX011 (ip), vehicle: alkali diluted with saline) was 66 % of control and 75 % of control, the T/C (dose: 10.0 mg/kg/injection, schedule: Q01DX011 (oral), vehicle: alkali diluted with saline) was 62 % of control and the T/C (dose: 10.0 mg/kg/injection, schedule: Q01DX011 (sc), vehicle: steriod suspending solution) was 99 % of control. The T/C (dose: 10.0 mg/kg/injection, schedule: Q#A X022 (ip), vehicle: alkali diluted with saline) was 64 % of control, the T/C [1] was 71 % of control and the T/C (dose: 13.25 mg/kg/injection, schedule: Q01DX011 (ip), vehicle: carboxymethylcellulose (CMC)) was 120 % of control. The T/C (dose: 13.8 mg/kg/injection, schedule: Q01DX011 (ip), vehicle: carboxymethylcellulose (CMC)) was 38 % of control, the T/C [2] was 49 % of control and the T/C (dose: 17.25 mg/kg/injection, schedule: Q01DX011 (ip), vehicle: carboxymethylcellulose (CMC)) was 50 % of control and 65 % of control. For the same molecule, the T/C (dose: 19.0 mg/kg/injection, schedule: Q01DX011 (ip), vehicle: carboxymethylcellulose (CMC)) was 56 % of control and 59 % of control, the T/C (dose: 20.0 mg/kg/injection, schedule: Q01DX006 (iv), vehicle: alkali diluted with saline) was 91 % of control and the T/C (dose: 20.0 mg/kg/injection, schedule: Q01DX011 (im), vehicle: alkali diluted with saline) was 76 % of control. For the same molecule, the T/C (dose: 20.0 mg/kg/injection, schedule: Q01DX011 (oral), vehicle: alkali diluted with saline) was 63 % of control, the T/C (dose: 20.0 mg/kg/injection, schedule: Q01DX011 (sc), vehicle: steriod suspending solution) was 48 % of control and the T/C (dose: 23.0 mg/kg/injection, schedule: Q01DX011 (ip), vehicle: carboxymethylcellulose (CMC)) was 31 % of control. The T/C [3] was 47 % of control, the T/C (dose: 26.5 mg/kg/injection, schedule: Q01DX011 (ip), vehicle: carboxymethylcellulose (CMC)) was 50 % of control and the T/C (dose: 30.0 mg/kg/injection, schedule: Q01DX011 (ip), vehicle: methylcellulose (MC)) was 33 % of control. The T/C (dose: 30.0 mg/kg/injection, schedule: Q03DX004 (ip), vehicle: alkali diluted with saline) was 117 % of control, the T/C (dose: 34.5 mg/kg/injection, schedule: Q01DX011 (ip), vehicle: carboxymethylcellulose (CMC)) was 12 % of control and 13 % of control and the T/C (dose: 38.0 mg/kg/injection, schedule: Q01DX011 (ip), vehicle: carboxymethylcellulose (CMC)) was 27 % of control and 32 % of control. The T/C (dose: 40.0 mg/kg/injection, schedule: Q01DX006 (iv), vehicle: alkali diluted with saline) was 95 % of control and 76 % of control, the T/C (dose: 40.0 mg/kg/injection, schedule: Q01DX011 (oral), vehicle: alkali diluted with saline) was 18 % of control and 42 % of control and the T/C (dose: 40.0 mg/kg/injection, schedule: Q01DX011 (sc), vehicle: steriod suspending solution) was 48 % of control. The T/C (dose: 40.0 mg/kg/injection, schedule: Q#A X022 (ip), vehicle: alkali diluted with saline) was 22 % of control and 36 % of control, the T/C (dose: 50.0 mg/kg/injection, schedule: Q01DX001 (ip), vehicle: alkali diluted with saline) was 88 % of control and the T/C (dose: 50.0 mg/kg/injection, schedule: Q01DX011 (ip), vehicle: methylcellulose (MC)) was 13 % of control. The T/C (dose: 60.0 mg/kg/injection, schedule: Q01DX011 (ip), vehicle: methylcellulose (MC)) was 6 % of control, the T/C (dose: 60.0 mg/kg/injection, schedule: Q03DX004 (ip), vehicle: alkali diluted with saline) was 47 % of control and the T/C (dose: 80.0 mg/kg/injection, schedule: Q01DX006 (iv), vehicle: alkali diluted with saline) was 92 % of control and 93 % of control. For the same molecule, the T/C (dose: 80.0 mg/kg/injection, schedule: Q01DX011 (im), vehicle: alkali diluted with saline) was 4 % of control and 9 % of control, the T/C (dose: 80.0 mg/kg/injection, schedule: Q01DX011 (ip), vehicle: alkali diluted with saline) was 9 % of control and 21 % of control and the T/C (dose: 100.0 mg/kg/injection, schedule: Q01DX001 (ip), vehicle: alkali diluted with saline) was 63 % of control. For the same molecule, the T/C (dose: 120.0 mg/kg/injection, schedule: Q03DX004 (ip), vehicle: alkali diluted with saline) was 41 % of control, the T/C (dose: 160.0 mg/kg/injection, schedule: Q01DX006 (iv), vehicle: alkali diluted with saline) was 24 % of control and the T/C (dose: 200.0 mg/kg/injection, schedule: Q01DX001 (ip), vehicle: alkali diluted with saline) was 186 % of control. The T/C (dose: 400.0 mg/kg/injection, schedule: Q01DX001 (ip), vehicle: alkali diluted with saline) was 89 % of control.

`CC(=O)Nc1nc(SCc2ccccc2)c2[nH]cnc2n1` was tested, and the T/C [1] was 8 % of control.

With `Nc1ncc2[nH]c(N)nc2n1` the T/C [3] was 58 % of control and the T/C (dose: 75.0 mg/kg/injection, schedule: Q01DX011 (ip), vehicle: methylcellulose (MC)) was 73 % of control.

With `Nc1[nH]cnc(=S)c1NC=O` the T/C [4] was 84 % of control, the T/C [5] was 63 % of control and the T/C [6] was 86 % of control. For the same molecule, the T/C (dose: 200.0 mg/kg/injection, schedule: Q01DX011 (ip), vehicle: carboxymethylcellulose (CMC)) was 101 % of control, the T/C [7] was 26 % of control and the T/C (dose: 400.0 mg/kg/injection, schedule: Q01DX011 (ip), vehicle: carboxymethylcellulose (CMC)) was 29 % of control.

With `CCCCCCCCn1cnc2c(=S)nc[nH]c21` the T/C (dose: 125.0 mg/kg/injection, schedule: Q01DX011 (ip), vehicle: carboxymethylcellulose (CMC)) was 84 % of control, the T/C (dose: 250.0 mg/kg/injection, schedule: Q01DX011 (ip), vehicle: carboxymethylcellulose (CMC)) was 67 % of control and the T/C (dose: 500.0 mg/kg/injection, schedule: Q01DX011 (ip), vehicle: carboxymethylcellulose (CMC)) was 102 % of control.

For `CN(C)c1ccc(/C=C/C2=[N+](C)c3ccccc3C2(C)C)cc1`, the T/C (dose: 2.0 mg/kg/injection, schedule: Q01DX011 (ip), vehicle: other) was 81 % of control.

With `Cc1cnc(SCc2ccccc2)nc1N(C)C` the T/C [2] was 57 % of control, the T/C (dose: 62.0 mg/kg/injection, schedule: Q01DX011 (ip), vehicle: methylcellulose (MC)) was 60 % of control and the T/C (dose: 125.0 mg/kg/injection, schedule: Q01DX011 (ip), vehicle: methylcellulose (MC)) was 65 % of control. For the same molecule, the T/C (dose: 250.0 mg/kg/injection, schedule: Q01DX011 (ip), vehicle: methylcellulose (MC)) was 50 % of control.

`Nc1nc2c([nH]c(=S)n2C2OC(CO)C(O)C2O)c(=O)[nH]1` (centres undefined) was tested, and the T/C [4] was 89 % of control, the T/C [5] was 156 % of control and the T/C [6] was 112 % of control. For the same molecule, the T/C [7] was 110 % of control.

With `Cc1ccccc1CNc1ncnc2[nH]ncc12` the T/C (dose: 5.0 mg/kg/injection, schedule: Q01DX011 (ip), vehicle: saline) was 79 % of control, the T/C (dose: 10.0 mg/kg/injection, schedule: Q01DX011 (ip), vehicle: saline) was 60 % of control and the T/C (dose: 25.0 mg/kg/injection, schedule: Q01DX011 (ip), vehicle: saline) was 29 % of control. The T/C (dose: 100.0 mg/kg/injection, schedule: Q01DX011 (ip), vehicle: saline) was 4 % of control and the T/C (dose: 125.0 mg/kg/injection, schedule: Q01DX011 (ip), vehicle: saline) was 9 % of control.

For `CSc1nc(N)nc2nc[nH]c12`, the T/C (dose: 0.6 mg/kg/injection, schedule: Q01DX011 (ip), vehicle: carboxymethylcellulose (CMC)) was 51 % of control, the T/C (dose: 1.25 mg/kg/injection, schedule: Q01DX011 (ip), vehicle: carboxymethylcellulose (CMC)) was 55 % of control and the T/C (dose: 2.5 mg/kg/injection, schedule: Q01DX011 (ip), vehicle: carboxymethylcellulose (CMC)) was 75 % of control. The T/C (dose: 5.0 mg/kg/injection, schedule: Q01DX011 (ip), vehicle: carboxymethylcellulose (CMC)) was 28 % of control and the T/C (dose: 15.0 mg/kg/injection, schedule: Q01DX011 (ip), vehicle: carboxymethylcellulose (CMC)) was 1 % of control.
